# Results as given in ChEMBL document CHEMBL3046768, “New antiepileptic agents: structureactivity relationships” (Med Chem Res, 2012).
# Key:
# [1] = biological target: 5-hydroxytryptamine receptor 2A (Homo sapiens) (UniProt P28223); test: Agonist activity at Homo sapiens (human) 5-HT2A receptor assessed as 5-HT-induced phosphoinositide hydrolysis by cell based assay; set-up: scale not given: the % may be the effect or the level left
# Mus musculus [2] = test: Anticonvulsant activity in ip dosed Mus musculus (mouse) assessed as inhibition of subcutaneous pentylene tetrazole-induced seizure; assay type: functional
# [3] = biological target: T1, 5-hydroxytryptamine receptor 2C (Homo sapiens, UniProt P28335); test: Agonist activity at Homo sapiens (human) 5-HT2C receptor
# T1 sequence (P28335 whole entry): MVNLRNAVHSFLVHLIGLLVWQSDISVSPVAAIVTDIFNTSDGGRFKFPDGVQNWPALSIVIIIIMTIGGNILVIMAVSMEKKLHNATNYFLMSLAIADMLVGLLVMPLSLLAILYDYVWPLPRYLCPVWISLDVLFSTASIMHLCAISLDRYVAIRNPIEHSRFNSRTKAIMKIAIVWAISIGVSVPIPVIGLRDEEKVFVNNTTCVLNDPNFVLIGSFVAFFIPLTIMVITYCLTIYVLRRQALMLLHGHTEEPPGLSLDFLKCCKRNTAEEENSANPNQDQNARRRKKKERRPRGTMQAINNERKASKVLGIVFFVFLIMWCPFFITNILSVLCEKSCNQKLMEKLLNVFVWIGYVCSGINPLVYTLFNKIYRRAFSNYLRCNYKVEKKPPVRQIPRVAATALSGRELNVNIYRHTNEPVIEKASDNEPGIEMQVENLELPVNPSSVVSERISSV
# [4] = biological target: T1, 5-hydroxytryptamine receptor 2C; test: (§1) Agonist activity at Homo sapiens (human) 5-HT2C receptor assessed as 5-HT-induced calcium mobilization by cell based assay; assay type: functional
# [5] = biological target: T2, 5-hydroxytryptamine receptor 2C (Homo sapiens) (UniProt P28335); test: as §1; assay type: functional
# T2 sequence (whole entry): T1 sequence (P28335 whole entry)
# [6] = Toxicity in po dosed maximal electroshock-induced seizure Rattus norvegicus (rat) model; assay type: organism-based; settings: in vivo
# Rattus norvegicus [7] = test: Protective index, ratio of TD50 for po dosed Rattus norvegicus (rat) to ED50 for anticonvulsant activity in po dosed rat assessed as inhibition of maximal electroshock-induced seizure; assay type: functional
# Mus musculus [8] = test: Protective index, ratio of TD50 for ip dosed Mus musculus (mouse) to ED50 for ip dosed Mus musculus (mouse) assessed as inhibition of maximal electroshock-induced seizure; assay type: functional
# Mus musculus [9] = test: Anticonvulsant activity in ip dosed Mus musculus (mouse) assessed as inhibition of maximal electroshock-induced seizure after 0.25 hr; assay type: functional
# Rattus norvegicus [10] = test: Anticonvulsant activity in po dosed Rattus norvegicus (rat) assessed as inhibition of maximal electroshock-induced seizure after 0.5 hr; assay type: functional
# Mus musculus [11] = species: Mus musculus; test: Protective index, ratio of TD50 for Mus musculus (mouse) to […] for Mus musculus (mouse) assessed as inhibition of maximal electroshock-induced seizure; assay type: functional
# Rattus norvegicus [12] = test: Anticonvulsant activity in po dosed Rattus norvegicus (rat) assessed as inhibition of maximal electroshock-induced seizure after 4 hr; assay type: functional
# Rattus norvegicus [13] = test: Anticonvulsant activity in ip dosed Rattus norvegicus (rat) assessed as inhibition of maximal electroshock-induced seizure; assay type: functional
# Rattus norvegicus [14] = test: Protective index, ratio of TD50 for ip dosed Rattus norvegicus (rat) to ED50 for ip dosed rat assessed as inhibition of maximal electroshock-induced seizure; assay type: functional
# Rattus norvegicus [15] = test: Anticonvulsant activity in ip dosed Rattus norvegicus (rat) assessed as inhibition of subcutaneous pentylene tetrazole-induced seizure; assay type: functional
# Rattus norvegicus [16] = test: Anticonvulsant activity in po dosed Rattus norvegicus (rat) assessed as inhibition of maximal electroshock-induced seizure after 5 hr; assay type: functional
# Mus musculus [17] = test: Anticonvulsant activity in ip dosed Mus musculus (mouse) assessed as inhibition of maximal electroshock-induced seizure after 1 hr; assay type: functional
# Mus musculus [18] = test: Anticonvulsant activity in ip dosed Mus musculus (mouse) assessed as inhibition of maximal electroshock-induced seizure; assay type: functional; settings: for ED50: Mus musculus, ip
# Mus musculus [19] = test: Anticonvulsant activity in ip dosed Mus musculus (mouse) assessed as inhibition of subcutaneous metrazol-induced seizure; assay type: functional
# Rattus norvegicus [20] = test: Anticonvulsant activity in po dosed Rattus norvegicus (rat) assessed as inhibition of maximal electroshock-induced seizure after 1 hr; assay type: functional
# [21] = Oral bioavailability in Rattus norvegicus (rat); assay type: ADME, organism-based; settings: in vivo
# [22] = Toxicity in ip dosed maximal electroshock-induced seizure Mus musculus (mouse) model; assay type: organism-based; settings: in vivo
# [23] = biological target: T1, 5-hydroxytryptamine receptor 2C; test: Agonist activity at Homo sapiens (human) 5-HT2C receptor assessed as calcium mobilization by cell based assay; assay type: functional
# Rattus norvegicus [24] = species: Rattus norvegicus; test: Anticonvulsant activity in Rattus norvegicus (rat) assessed as inhibition of maximal electroshock-induced seizure; assay type: functional
# Mus musculus [25] = species: Mus musculus; test: Anticonvulsant activity in Mus musculus (mouse) assessed as inhibition of maximal electroshock-induced seizure; assay type: functional
# Chain of 5-hydroxytryptamine receptor 2A (Homo sapiens) (P28223 whole entry): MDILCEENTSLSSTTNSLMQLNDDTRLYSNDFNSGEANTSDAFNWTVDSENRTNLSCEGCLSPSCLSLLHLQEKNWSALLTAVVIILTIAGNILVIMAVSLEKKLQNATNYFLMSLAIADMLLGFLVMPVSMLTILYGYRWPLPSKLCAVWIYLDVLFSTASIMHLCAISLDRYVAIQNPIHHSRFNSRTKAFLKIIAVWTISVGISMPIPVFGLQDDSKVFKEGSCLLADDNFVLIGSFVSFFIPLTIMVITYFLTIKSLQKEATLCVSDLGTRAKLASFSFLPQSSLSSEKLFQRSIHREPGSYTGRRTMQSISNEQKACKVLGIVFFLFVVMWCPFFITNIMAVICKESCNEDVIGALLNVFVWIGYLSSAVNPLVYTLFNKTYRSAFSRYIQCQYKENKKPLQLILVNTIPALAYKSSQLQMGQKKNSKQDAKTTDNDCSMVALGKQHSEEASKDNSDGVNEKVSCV
structure (smiles),measurement,setting,value
CCc1cc2c(ccc3cnn(C[C@H](C)N)c32)o1,Activity,[1],97%
CCCC(CCC)C(=O)[O-].[Na+] [VALPROATE SODIUM],inhibition (INH),Mus musculus [2],80%
C1CC2CNCCN3C2C(C1)[C@H]1CCC[C@H]13 (stereo partly drawn),EC50,[3],76 nM
CCOc1ccc2c(c1)c(C[C@H](C)N)c1n2CCC1,EC50,[4],4 nM
same,Activity,[5],87%
CC(=O)NN(C(=O)NCc1ccccc1)c1nccs1,TD50,[6],> 250 mg/kg
same,Ratio TD50/ED50,Rattus norvegicus [7],>40
same,Ratio TD50/ED50,Mus musculus [8],5.4
same,ED50,Mus musculus [9],22 mg/kg
same,ED50,Rattus norvegicus [10],6.2 mg/kg
O=C1CC2(CCCC2)C(=O)N1OCc1ccccc1,PI,Mus musculus [11],>4.5
O=C1NC(=O)C(c2ccccc2)(c2ccccc2)N1 [PHENYTOIN],ED50,Rattus norvegicus [12],30 mg/kg
CCOC(=O)C1C(=O)C=C(Nc2cc(C)on2)CC1C (stereo not drawn),TD50,[6],> 500 mg/kg
same,Ratio TD50/ED50,Rattus norvegicus [7],>49.6
O=C(NCc1ccccc1F)c1ccccn1 [PICOLINIC ACID FLUOROBENZYLAMIDE],ED50,Rattus norvegicus [13],14.7 mg/kg
same,Ratio TD50/ED50,Rattus norvegicus [14],<3.4
same,ED50,Rattus norvegicus [15],> 50 mg/kg
CCC1(c2ccccc2)C(=O)NC(=O)NC1=O [PHENOBARBITAL],ED50,Rattus norvegicus [16],9.1 mg/kg
same,ED50,Mus musculus [17],22 mg/kg
Cc1cc(NC2=CC(=O)C(C(=O)OC(C)(C)C)C(C)C2)no1 (stereo not drawn),TD50,[6],> 500 mg/kg
same,Ratio TD50/ED50,Rattus norvegicus [7],>17.8
O=C1NCCCCC1(O)c1ccccc1 (stereo not drawn),ED50,Mus musculus [18],63 mg/kg
same,ED50,Mus musculus [19],74 mg/kg
CC(=O)NC(C)C(=O)NCc1ccccc1 (stereo not drawn),Ratio TD50/ED50,Rattus norvegicus [7],>20
same,Ratio TD50/ED50,Mus musculus [8],5.9
same,ED50,Mus musculus [17],77 mg/kg
same,ED50,Rattus norvegicus [20],48 mg/kg
Clc1ccc(-c2ccc(-c3cc4c5c(c3)[C@@H]3CNC[C@@H]3N5CCCS4)cc2)c(Cl)c1,EC50,[3],3 nM
CCNc1nnc(-c2ccccc2O)s1,inhibition (INH),Mus musculus [18],90%
Cc1noc(C)c1COc1cc(F)c(COC(=O)N2[C@H](C)CNC[C@@H]2C)c(F)c1,Activity,[5],91%
C[C@H]1CN(c2ccc(C(F)(F)F)c3ccoc23)CCN1,bioavailability,[21],83%
COC(=O)C1C(=O)C=C(Nc2cc(C)on2)CC1C (stereo not drawn),TD50,[22],> 500 mg/kg
same,ED50,Mus musculus [18],68.9 mg/kg
same,Ratio TD50/ED50,Mus musculus [8],>7.3
Oc1ccccc1-c1nnc(Nc2cccc(F)c2)s1,inhibition (INH),Mus musculus [18],70%
Cc1c2n(c3c(C)c(Cl)ccc13)C(C)NCC2 (stereo not drawn),EC50,[23],0.4 nM
"CC1(C)C(C(=O)NC(N)=O)C1(C)C [2,2,3,3-TETRAMETHYLCYCLOPROPANECARBONYLUREA]",ED50,Rattus norvegicus [24],29 mg/kg
same,ED50,Mus musculus [25],90 mg/kg
